Test system: anesthetized open-chest dogs
Test: Hemodynamics of anesthetized open-chest dogs, intravenous infusion
Assay type: in vivo, mongrel dogs
Protocol: The animals were anesthetized by intravenous injection of 30 mg/kg sodium pentobarbital, tracheally intubated, and mechanically ventilated with positive air pressure. Left thoracotomy was performed through the fourth intercostal space and the heart was suspended in a pericardial cradle, the aortic root was isolated and a probe of blood flow meter (12 or 14 mm in diameter) was fixed to measure the aortic blood flow as a representation of cardiac output (CO), the circumflex branch of left coronary artery was isolated and a probe of blood flow meter (2 or 2.5 mm in diameter) was fixed to measure the coronary blood flow (CBF). A polyethylene catheter filled with heparin physiological saline was inserted through cardiac apex into the left ventricle to measure the left ventricular pressure (LVP) and left ventricular end-diastolic pressure (LVEDP), Peak positive and peak negative first derivatives of the LVP (+ LVdp/dt and − LVdp/dt) were calculated with the Acknowledge software. The systolic blood pressure (SBP), diastolic blood pressure (DBP) and mean arterial pressure (MAP) were measured by polyethylene catheter via the femoral artery, ECG □ was measured by a AC-601G ECG amplifier. The above-mentioned analog signal was input into a data acquisition workstation (MP100, BIOPAC Systems, USA) to a computer running Acknowledge (version 3.7.1).
After surgery, various indexes before administration were recorded until the indexes were stable, and then intravenous infusion administration was conducted. Thirty dogs were divided into five groups (six dogs in each group), the experiment groups were given 0.15, 0.3, 0.6 mg/kg of ASP-[…] respectively, the normal control group was given 1 ml/kg of solvent, and the positive control group was given 0.3 mg/kg of astragaloside IV. The delivery volumes were 15 ml for each dog was and the delivery velocity was 1 ml/min. The indexes were recorded at 5, 10, 15, 20, 30, 45, 60, 90 and 120 mins after drug administration. At the end of experiment, the hearts were excised and weighted. The myocardial blood flow for per hectogram (CF), coronary resistance (CR), cardiac index (CI), left ventricular work (LVW) and total peripheral resistance (TPR) were calculated according to the following formulae: CF=CBF×[…]/heart weight CR=MAP/CF CI=CO/0.11×(body weight)^2/3 LVW=CO×(MAP−5)×1.052×0.0136 TPR=MAP×79.92/CO
Data are expressed as mean±SD ( x±s), the paired t-test was used to compare the significance between before and after administration, the unpaired t-test was adopted for comparison between groups.

[1] = 0.6 mg/kg iv, 15 min after administration
[2] = 0.6 mg/kg iv, 20 min after administration
[3] = 0.6 mg/kg iv, 30 min after administration
[4] = 0.6 mg/kg iv, 45 min after administration
[5] = 0.6 mg/kg iv, 60 min after administration
[6] = 0.6 mg/kg iv, 90 min after administration
[7] = 0.6 mg/kg iv, 120 min after administration
[8] = 0.6 mg/kg iv, before administration
[9] = 0.15, 0.3 and 0.6 mg/kg iv, within 120 min

CC(C)(O)[C@@H]1CC[C@](C)([C@H]2[C@@H](O)C[C@@]3(C)C4C[C@H](OC5OC(CO)C(O)C(O)C5O)C5C(C)(C)[C@@H](O)CC[C@@]56C[C@@]46CC[C@]23C)O1 (stereo partly drawn) [CMG, Cycloastragenol-6-O-β-D-glucoside]
LVW change vs before administration [1]: (0.06 ± 0.13) kg · m
TPR [1]: 5249 ± 2234 dyn · s/cm^5
TPR change vs before administration [1]: (−258 ± 392) dyn · s/cm^5
dp/dt [1]: 1199 ± 288 mmHg/s
dp/dt change vs before administration [1]: (95 ± 56) mmHg/s
−dp/dt [1]: −851 ± 196 mmHg/s
−dp/dt change vs before administration [1]: (2 ± 98) mmHg/s
CF [2]: 49.8 ± 8.0 ml/min/100 g
CF change vs before administration [2]: (−1.4 ± 1.4) ml/min/100 g
CI [2]: 2.05 ± 0.41 L/min/m^2
CI change vs before administration [2]: (0.09 ± 0.18) L/min/m^2
CO [2]: 1.19 ± 0.34 L/min
CO change vs before administration [2]: (0.05 ± 0.10) L/min
CR [2]: 1.48 ± 0.36 mmHg/ml/min/100 g
CR change vs before administration [2]: (0.06 ± 0.10) mmHg/ml/min/100 g
LVEDP [2]: 1.2 ± 1.6 mmHg
LVEDP change vs before administration [2]: (−1.5 ± 0.54) mmHg
LVP [2]: 107 ± 17 mmHg
LVP change vs before administration [2]: (0.4 ± 3.9) mmHg
LVW [2]: 1.13 ± 0.35 kg · m
LVW change vs before administration [2]: (0.06 ± 0.17) kg · m
TPR [2]: 5176 ± 1818 dyn · s/cm^5
TPR change vs before administration [2]: (−331 ± 534) dyn · s/cm^5
dp/dt [2]: 1276 ± 339 mmHg/s
dp/dt change vs before administration [2]: (172 ± 151) mmHg/s
−dp/dt [2]: −842 ± 220 mmHg/s
−dp/dt change vs before administration [2]: (10 ± 91) mmHg/s
CF [3]: 50.7 ± 8.5 ml/min/100 g
CF change vs before administration [3]: (−0.5 ± 4.0) ml/min/100 g
CI [3]: 2.05 ± 0.57 L/min/m^2
CI change vs before administration [3]: (0.09 ± 0.12) L/min/m^2
CO [3]: 1.20 ± 0.43 L/min
CO change vs before administration [3]: (0.05 ± 0.07) L/min
CR [3]: 1.46 ± 0.38 mmHg/ml/min/100 g
CR change vs before administration [3]: (0.04 ± 0.08) mmHg/ml/min/100 g
LVEDP [3]: 1.3 ± 1.5 mmHg
LVEDP change vs before administration [3]: (−1.4 ± 0.6) mmHg
LVP [3]: 107 ± 17 mmHg
LVP change vs before administration [3]: (0.9 ± 5.6) mmHg
LVW [3]: 1.15 ± 0.45 kg · m
LVW change vs before administration [3]: (0.07 ± 0.13) kg · m
TPR [3]: 5406 ± 2485 dyn · s/cm^5
TPR change vs before administration [3]: (−101 ± 366) dyn · s/cm^5
dp/dt [3]: 1232 ± 274 mmHg/s
dp/dt change vs before administration [3]: (128 ± 108) mmHg/s
−dp/dt [3]: −833 ± 243 mmHg/s
−dp/dt change vs before administration [3]: (20 ± 96) mmHg/s
CF [4]: 50.4 ± 7.8 ml/min/100 g
CF change vs before administration [4]: (−0.8 ± 4.7) ml/min/100 g
CI [4]: 1.97 ± 0.30 L/min/m^2
CI change vs before administration [4]: (0.01 ± 0.26) L/min/m^2
CO [4]: 1.15 ± 0.27 L/min
CO change vs before administration [4]: (0.00 ± 0.15) L/min
CR [4]: 1.48 ± 0.35 mmHg/ml/min/100 g
CR change vs before administration [4]: (0.06 ± 0.16) mmHg/ml/min/100 g
LVEDP [4]: 1.3 ± 1.7 mmHg
LVEDP change vs before administration [4]: (−1.41 ± 0.81) mmHg
LVP [4]: 106 ± 16 mmHg
LVP change vs before administration [4]: (0.2 ± 5.2) mmHg
LVW [4]: 1.1 ± 0.29 kg · m
LVW change vs before administration [4]: (0.03 ± 0.23) kg · m
TPR [4]: 5337 ± 1723 dyn · s/cm^5
TPR change vs before administration [4]: (−170 ± 595) dyn · s/cm^5
dp/dt [4]: 1181 ± 320 mmHg/s
dp/dt change vs before administration [4]: (77 ± 53) mmHg/s
−dp/dt [4]: −842 ± 170 mmHg/s
−dp/dt change vs before administration [4]: (10 ± 126) mmHg/s
CF [5]: 50.2 ± 11.6 ml/min/100 g
CF change vs before administration [5]: (−1.0 ± 6.9) ml/min/100 g
CI [5]: 2.04 ± 0.36 L/min/m^2
CI change vs before administration [5]: (0.08 ± 0.24) L/min/m^2
CO [5]: 1.19 ± 0.32 L/min
CO change vs before administration [5]: (0.04 ± 0.13) L/min
CR [5]: 1.53 ± 0.47 mmHg/ml/min/100 g
CR change vs before administration [5]: (0.11 ± 0.26) mmHg/ml/min/100 g
LVEDP [5]: 1.6 ± 1.6 mmHg
LVEDP change vs before administration [5]: (−1.05 ± 0.76) mmHg
LVP [5]: 105 ± 14 mmHg
LVP change vs before administration [5]: (−0.8 ± 7.7) mmHg
LVW [5]: 1.17 ± 0.40 kg · m
LVW change vs before administration [5]: (0.10 ± 0.20) kg · m
TPR [5]: 5170 ± 1416 dyn · s/cm^5
TPR change vs before administration [5]: (−336 ± 1012) dyn · s/cm^5
dp/dt [5]: 1199 ± 294 mmHg/s
dp/dt change vs before administration [5]: (95 ± 76) mmHg/s
−dp/dt [5]: −829 ± 157 mmHg/s
−dp/dt change vs before administration [5]: (24 ± 167) mmHg/s
CF [6]: 48.6 ± 7.2 ml/min/100 g
CF change vs before administration [6]: (−2.6 ± 2.8) ml/min/100 g
CI [6]: 2.09 ± 0.53 L/min/m^2
CI change vs before administration [6]: (0.13 ± 0.20) L/min/m^2
CO [6]: 1.22 ± 0.40 L/min
CO change vs before administration [6]: (0.07 ± 0.12) L/min
CR [6]: 1.52 ± 0.37 mmHg/ml/min/100 g
CR change vs before administration [6]: (0.11 ± 0.12) mmHg/ml/min/100 g
LVEDP [6]: 1.3 ± 1.4 mmHg
LVEDP change vs before administration [6]: (−1.35 ± 0.72) mmHg
LVP [6]: 105 ± 12 mmHg
LVP change vs before administration [6]: (−1.3 ± 6.7) mmHg
LVW [6]: 1.17 ± 0.44 kg · m
LVW change vs before administration [6]: (0.10 ± 0.11) kg · m
TPR [6]: 5285 ± 2431 dyn · s/cm^5
TPR change vs before administration [6]: (−222 ± 606) dyn · s/cm^5
dp/dt [6]: 1152 ± 313 mmHg/s
dp/dt change vs before administration [6]: (48 ± 63) mmHg/s
−dp/dt [6]: −815 ± 238 mmHg/s
−dp/dt change vs before administration [6]: (37 ± 55) mmHg/s
CF [7]: 49.3 ± 7.3 ml/min/100 g
CF change vs before administration [7]: (−1.9 ± 5.0) ml/min/100 g
CI [7]: 2.07 ± 0.47 L/min/m^2
CI change vs before administration [7]: (0.11 ± 0.22) L/min/m^2
CO [7]: 1.21 ± 0.38 L/min
CO change vs before administration [7]: (0.06 ± 0.13) L/min
CR [7]: 1.42 ± 0.27 mmHg/ml/min/100 g
CR change vs before administration [7]: (0.00 ± 0.17) mmHg/ml/min/100 g
LVEDP [7]: 2.0 ± 1.2 mmHg
LVEDP change vs before administration [7]: (−0.73 ± 0.52) mmHg
LVP [7]: 102 ± 17 mmHg
LVP change vs before administration [7]: (−4.4 ± 5.9) mmHg
LVW [7]: 1.12 ± 0.42 kg · m
LVW change vs before administration [7]: (0.04 ± 0.18) kg · m
TPR [7]: 4925 ± 1674 dyn · s/cm^5
TPR change vs before administration [7]: (−582 ± 764) dyn · s/cm^5
dp/dt [7]: 1078 ± 283 mmHg/s
dp/dt change vs before administration [7]: (−25 ± 109) mmHg/s
−dp/dt [7]: −789 ± 269 mmHg/s
−dp/dt change vs before administration [7]: (64 ± 63) mmHg/s
+LVdp/dtmax maximum increase (0.6 mg/kg iv, at 5-10 min after administration): 22.6±11.8%
CF [8]: 51.2 ± 8.0 ml/min/100 g
CI [8]: 1.96 ± 0.54 L/min/m^2
CO [8]: 1.15 ± 0.40 L/min
CR [8]: 1.41 ± 0.35 mmHg/ml/min/100 g
LVEDP [8]: 2.7 ± 1.3 mmHg
LVP [8]: 106 ± 16 mmHg
LVW [8]: 1.08 ± 0.41 kg · m
TPR [8]: 5507 ± 2267 dyn · s/cm^5
dp/dt [8]: 1104 ± 295 mmHg/s
−dp/dt [8]: −852 ± 244 mmHg/s
duration of LVEDP decrease (0.15, 0.3 and 0.6 mg/kg iv): more than 2 hours
left ventricular work (LVW) (0.15, 0.3 and 0.6 mg/kg iv): no significant change
CF and CR [9]: no significant changes
CO and CI [9]: no significant changes
SBP, DBP, MAP and HR [9]: no significant changes
left ventricular pressure (LVP) [9]: no significant change
total peripheral resistance (TPR) [9]: no significant change
−LVdp/dtmax (0.3 and 0.6 mg/kg iv): no significant effect
